The values that follow come from article PMC5007552, “The hVps34‐SGK3 pathway alleviates sustained PI3K/Akt inhibition by stimulating mTORC1 and tumour growth” (The EMBO Journal, 2016).

One assay has as its system BT-474c cells. The assay is described as follows: Immunoblot of mTORC1 pathway markers in BT-474c cells. Type of assay: cell-based, human. The note with it: 5 days 1 μM MK-2206, then 3 μM 14h 1 h. The procedure:
SGK3 (upper panel) and S6K1 (middle panel) were immunoprecipitated and subjected to in vitro kinase assay by measuring phosphorylation of the Crosstide substrate peptide in the presence of 0.1 mM [γ‐^32P]ATP in a 30 min 30°C reaction. Kinase reactions are presented as means ± SD for triplicate reaction. Immunoprecipitates (IP) were also analysed by immunoblot with the indicated antibodies. The cell lysates were subjected to immunoblot analysis using the indicated antibodies (bottom panel). Source data are available online for this figure.
HEK293 cells were purchased from the American Tissue Culture Collection (ATCC). Cells were cultured in RPMI or DMEM media supplemented with 10% (v/v) foetal bovine serum, 2 mM L‐glutamine, 100 U/ml penicillin and 0.1 mg/ml streptomycin. Inhibitor treatments were carried out as described in figure legends. During 5 days inhibitor treatments, the media was changed after 72‐h intervals. The cells were lysed in buffer containing 50 mM Tris–HCl (pH 7.5), 150 mM NaCl, 1 mM EDTA, 1 mM EGTA, 1 mM sodium orthovanadate, 10 mM sodium glycerophosphate, 10 mM sodium pyrophosphate, 0.27 M sucrose, 0.1% (v/v) 2‐mercaptoethanol, 1 mM benzamidine and 0.1 mM PMSF. Lysates were clarified by centrifugation at 16,000 g for 10 min at 4°C. Protein concentration was calculated using Bradford assay (Thermo Scientific). […]
For orientation: A western blot detects proteins with antibodies after separation by electrophoresis.

For a further assay, the system named is S6K1. The assay is described as follows: Immunoprecipitated S6K1 kinase activity (Crosstide) from treated ZR-75-1 cells. Type of assay: cell-based, human. The conditions noted are these: 1 μM MK-2206, 1 h. On the procedure: SGK3 (upper panel) and S6K1 (middle panel) were immunoprecipitated and subjected to in vitro kinase assay by measuring phosphorylation of the Crosstide substrate peptide in the presence of 0.1 mM [γ‐^32P]ATP in a 30 min 30°C reaction. Kinase reactions are presented as means ± SD for triplicate reaction. Immunoprecipitates (IP) were also analysed by immunoblot with the indicated antibodies. The cell lysates were also analysed by immunoblot using the indicated antibodies (lower panel).
Briefly, SGK3, Akt and S6K1 were immunoprecipitated from 1 mg ZR‐75‐1 cell lysate. Immunoprecipitates were washed in sequence with lysis buffer containing high salt concentration (500 mM NaCl), lysis buffer and Buffer A (50 mM Tris pH 7.5, 0.1 mM EGTA). Kinase activity was assessed by measuring [γ‐^32P]ATP incorporation into Crosstide substrate peptide [[…]]. The reactions were carried in 40 μl total volume containing 0.1 mM [γ‐^32P]ATP (400–1,000 cpm/pmol), 10 mM magnesium acetate and 30 μM Crosstide peptide. Reactions were terminated by adding 10 μl 0.1 M EDTA and spotting 40 μl of the resulting reaction mix on P81 paper, which were immediately immersed into 50 mM orthophosphoric acid. Papers were washed at least five times in 50 mM orthophosphoric acid, rinsed in acetone and air‐dried. Radioactivity was quantified by Cerenkov counting. […]

For the compound `Nc1n[nH]c2nc(-c3ccc(NS(=O)(=O)c4cc(Cl)ccc4Cl)cc3)cnc12` [14h], the “phosphorylation of TSC2, S6K1 and S6 protein” value in the assay with BT-474c cells was “suppression of phosphorylation of TSC2, S6K1 and its downstream target S6 protein”.

Consider `NC1(c2ccc(-c3nc4ccn5c(=O)[nH]nc5c4cc3-c3ccccc3)cc2)CCC1` [MK-2206], for which the “reduction of S6K1 activity” value in the assay with S6K1 was ~ 10 fold.
